According to paper PMC5882164, “A novel calcimimetic agent, evocalcet (MT-4580/KHK7580), suppresses the parathyroid cell function with little effect on the gastrointestinal tract or CYP isozymes in vivo and in vitro” (PLoS ONE, 2018):
Values joined by “and” are separate entries in the source; they are usually repeats but may differ in a detail not shown here. Equal values may be shown once. Read-outs that look alike come from different tables or passages of the source.

Assays:
[1] = Pharmacokinetics of evocalcet after oral administration to male rats; conditions: rat, in vivo; for AUC(0-inf): AUC0-∞
Method: The plasma concentrations of evocalcet were determined after single or repeated oral administration in both normal and 5/6 Nx rats. The pharmacokinetic (PK) parameters of the rat plasma concentrations were calculated individually using Phoenix WinNonlin 6.2, a PK analysis software program (Pharsight Corporation, Sunnyvale, CA).

serum PTH = assay: 5/6 nephrectomized rats study: serum PTH level; assay type: in vivo, rat; conditions: 5/6 Nx rats; for Serum PTH levels before (day 0) and 24 h after evocalcet administration, Mean: group mean; for Serum PTH levels before (day 0) and 24 h after evocalcet administration: individual rats
Method: Rats were 5/6 nephrectomized in two steps. Under anesthesia (pentobarbital, 50 mg/kg; intraperitoneally) and analgesia (lidocaine; topically), two-thirds of the left kidney was removed, and then the right kidney was removed after a seven-day interval. Seven days after the completion of 5/6 nephrectomy, the FR-2 diet was changed to a high-phosphate diet, containing 0.6% calcium and 0.9% phosphate (Oriental Yeast Co., Ltd., Tokyo, Japan). Approximately 2 weeks after the initiation of the high-phosphate diet, the 5/6 Nx rats were divided into five groups (n = 12/group) matched in terms of their body weight as well as their blood urea nitrogen (BUN) and serum PTH and calcium levels.
In the single-dose study, blood samples were collected from the tail vein before and at 0.5, 2, 4, 8, 24, 48, and 72 h after the oral administration of vehicle (0.5% methyl cellulose solution) or evocalcet (0.03, 0.1, 0.3, or 1 mg/kg). In the repeated-dose study, vehicle or evocalcet was orally administered to the respective groups once daily for 14 days. Blood samples were obtained from the tail vein before the first administration and after the seventh and last administrations.
The serum PTH level was measured using a Rat Intact PTH ELISA kit (Immutopics, Inc., San Clemente, CA). The serum calcium, phosphate and BUN levels were measured using an auto analyzer (Hitachi High-Technologies Corporation., Tokyo, Japan) or the following test kits: the Calcium E-test WAKO, the Phospha C-test WAKO, or the Blood Urea nitrogen B-test WAKO (Wako Pure Chemical Industries, Ltd., Osaka, Japan).

C[C@@H](N[C@H]1CCN(c2ccc(CC(=O)O)cc2)C1)c1cccc2ccccc12 [evocalcet]
bioavailability ([1]; Sprague-Dawley, Bioavailability): > 80% | AUC(0-inf) ([1]; Sprague-Dawley, po, 0.1 mg/kg): 819 ng·h/mL | Cmax ([1]; Sprague-Dawley, po, 0.1 mg/kg): 222 ng/mL | bioavailability ([1]; Sprague-Dawley, po, 0.1 mg/kg, F (bioavailability)): 81.6% | half-life ([1]; Sprague-Dawley, po, 0.1 mg/kg, t1/2): 6.66 h | Tmax ([1]; Sprague-Dawley, po, 0.1 mg/kg, tmax): 0.25 h | AUC(0-inf) ([1]; Sprague-Dawley, po, 0.3 mg/kg): 2580 ng·h/mL | Cmax ([1]; Sprague-Dawley, po, 0.3 mg/kg): 600 ng/mL | bioavailability ([1]; Sprague-Dawley, po, 0.3 mg/kg, F (bioavailability)): 85.6% | half-life ([1]; Sprague-Dawley, po, 0.3 mg/kg, t1/2): 5.77 h | Tmax ([1]; Sprague-Dawley, po, 0.3 mg/kg, tmax): 0.38 h | t1/2 ([1]; Sprague-Dawley, po, 1 mg/kg): 6.13 h | AUC(0-inf) ([1]; Sprague-Dawley, po, 1 mg/kg): 8440 ng·h/mL | Cmax ([1]; Sprague-Dawley, po, 1 mg/kg): 2190 ng/mL | bioavailability ([1]; Sprague-Dawley, po, 1 mg/kg, F (bioavailability)): 84.2% | Tmax ([1]; Sprague-Dawley, po, 1 mg/kg, tmax): 0.81 h | half-life ([1]; normal rats, single oral dose 1 mg/kg, mean, read-out: t1/2 (converted)): 6.13 h | AUC(0-inf) ([1]; po, 0.1 mg/kg): 981 ng·h/mL | Cmax ([1]; po, 0.1 mg/kg): 221 ng/mL | half-life ([1]; po, 0.1 mg/kg, t1/2): 5.71 h | Tmax ([1]; po, 0.1 mg/kg, tmax): 0.25 h | Tmax ([1]; po, 0.3 mg/kg): 0.50 h | AUC(0-inf) ([1]; po, 0.3 mg/kg): 2260 ng·h/mL | Cmax ([1]; po, 0.3 mg/kg): 570 ng/mL | half-life ([1]; po, 0.3 mg/kg, t1/2): 5.68 h | Tmax ([1]; po, 0.3 mg/kg, tmax): 0.25 h | Tmax ([1]; po, 1 mg/kg): 1.00 h | AUC(0-inf) ([1]; po, 1 mg/kg): 7890 ng·h/mL | Cmax ([1]; po, 1 mg/kg): 1810 ng/mL | half-life ([1]; po, 1 mg/kg, t1/2): 6.99 h | Serum PTH levels after the first administration (serum PTH; 0.03 mg/kg, 0 h, group mean of 12 rats): 2235.149 | Serum PTH levels after the first administration (serum PTH; 0.03 mg/kg, 0 h, individual rat): 3146.838 and 3130.460 and 2411.903 and 1952.597 and 3363.037 and 1097.629 | Serum PTH levels after the first administration (serum PTH; 0.03 mg/kg, 0.5 h, group mean of 12 rats): 2132.775 | Serum PTH levels after the first administration (serum PTH; 0.03 mg/kg, 0.5 h, individual rat): 4101.960 and 5220.639 and 2506.611 and 3090.422 and 3558.006 and 125.411 | Serum PTH levels after the first administration (serum PTH; 0.03 mg/kg, 2 h, group mean of 12 rats): 2186.293 | Serum PTH levels after the first administration (serum PTH; 0.03 mg/kg, 2 h, individual rat): 4890.509 and 4068.711 and 2185.504 and 3005.600 and 4664.020 and 345.560 | Serum PTH levels after the first administration (serum PTH; 0.03 mg/kg, 4 h, group mean of 12 rats): 2269.553 | Serum PTH levels after the first administration (serum PTH; 0.03 mg/kg, 4 h, individual rat): 4679.877 and 4835.119 and 2331.859 and 3883.490 and 3137.288 and 547.391 | Serum PTH levels after the first administration (serum PTH; 0.03 mg/kg, 8 h, group mean of 12 rats): 2414.885 | Serum PTH levels after the first administration (serum PTH; 0.03 mg/kg, 8 h, individual rat): 5964.855 and 4334.746 and 2555.658 and 4291.517 and 2662.474 and 769.912 | Serum PTH levels after the first administration (serum PTH; 0.03 mg/kg, 24 h, group mean of 12 rats): 2792.495 | Serum PTH levels after the first administration (serum PTH; 0.03 mg/kg, 24 h, individual rat): 4890.842 and 5921.359 and 2295.822 and 3334.469 and 3685.692 and 634.649 | Serum PTH levels before (day 0) and 24 h after evocalcet administration, Mean (serum PTH; 0.03 mg/kg, day 0 (Before)): 2235.149 | Serum PTH levels before (day 0) and 24 h after evocalcet administration (serum PTH; 0.03 mg/kg, day 0 (Before), 0.03 mg/kg): 3146.838 and 3130.460 and 2411.903 and 1952.597 and 3363.037 and 1097.629 and 2977.436 and 1709.257 and 736.362 and 1492.356 and 1948.854 and 2855.064 | Serum PTH levels before (day 0) and 24 h after evocalcet administration, Mean (serum PTH; 0.03 mg/kg, day 7 (24 h)): 1440.297 | Serum PTH levels before (day 0) and 24 h after evocalcet administration (serum PTH; 0.03 mg/kg, day 7 (24 h), 0.03 mg/kg): 175.760 and 1003.083 and 756.245 and 2355.229 and 3361.800 and 1990.106 and 170.127 and 208.561 and 3498.638 and 332.146 and 1090.222 and 2341.644 | Serum PTH levels before (day 0) and 24 h after evocalcet administration, Mean (serum PTH; 0.03 mg/kg, day 14 (24 h)): 2303.348 | Serum PTH levels before (day 0) and 24 h after evocalcet administration (serum PTH; 0.03 mg/kg, day 14 (24 h), 0.03 mg/kg): 4997.693 and 3995.599 and 1879.977 and 3492.362 and 3523.261 and 468.569 and 465.344 and 1621.501 and 608.285 and 1702.644 and 1919.474 and 2965.469 | Serum PTH levels after the first administration (serum PTH; 0.1 mg/kg, 0 h, individual rat): 2191.024 and 4476.799 and 4734.069 and 3561.219 and 1608.879 and 3394.625 and 2344.750 and 2855.532 and 1478.317 and 2515.323 | Serum PTH levels after the first administration (serum PTH; 0.1 mg/kg, 0.5 h, individual rat): 697.065 and 166.990 and 643.814 and 188.145 and 87.713 and 1427.254 and 2994.134 and 497.193 and 52.922 and 216.107 | Serum PTH levels after the first administration (serum PTH; 0.1 mg/kg, 2 h, individual rat): 921.070 and 152.688 and 1274.188 and 268.767 and 48.850 and 837.618 and 3213.565 and 734.412 and 45.617 and 171.332 | Serum PTH levels after the first administration (serum PTH; 0.1 mg/kg, 4 h, individual rat): 1346.496 and 622.337 and 1091.618 and 881.643 and 178.355 and 1445.792 and 3885.042 and 1344.283 and 585.655 and 429.439 | Serum PTH levels after the first administration (serum PTH; 0.1 mg/kg, 8 h, individual rat): 1602.872 and 1239.629 and 2688.836 and 1069.819 and 616.193 and 1780.899 and 3893.446 and 2481.366 and 541.217 | Serum PTH levels after the first administration (serum PTH; 0.1 mg/kg, 24 h, individual rat): 2327.970 and 3050.546 and 5188.511 and 1270.996 and 1634.838 and 3384.643 and 3324.854 and 2293.418 and 169.556 | Serum PTH levels before (day 0) and 24 h after evocalcet administration, Mean (serum PTH; 0.1 mg/kg, day 0 (Before)): 3005.615 | Serum PTH levels before (day 0) and 24 h after evocalcet administration (serum PTH; 0.1 mg/kg, day 0 (Before), 0.1 mg/kg): 2191.024 and 4476.799 and 4734.069 and 3561.219 and 1608.879 and 3394.625 and 2344.750 and 2855.532 and 1478.317 and 2515.323 and 3938.529 and 2968.311 | Serum PTH levels before (day 0) and 24 h after evocalcet administration, Mean (serum PTH; 0.1 mg/kg, day 7 (24 h)): 2408.528 | Serum PTH levels before (day 0) and 24 h after evocalcet administration (serum PTH; 0.1 mg/kg, day 7 (24 h), 0.1 mg/kg): 1659.111 and 1709.141 and 1368.206 and 692.961 and 2049.745 and 3311.770 and 3632.825 and 4438.329 and 2720.020 and 2668.995 and 3977.154 and 674.076 | Serum PTH levels before (day 0) and 24 h after evocalcet administration, Mean (serum PTH; 0.1 mg/kg, day 14 (24 h)): 1395.021 | Serum PTH levels before (day 0) and 24 h after evocalcet administration (serum PTH; 0.1 mg/kg, day 14 (24 h), 0.1 mg/kg): 1994.437 and 1611.022 and 2757.774 and 1453.572 and 176.238 and 2214.760 and 1548.955 and 1921.086 and 242.603 and 1372.697 and 1155.599 and 291.504
